Source: US20230181564A1, “Potent Tetrahydroquinolone Eliminates Apicomplexan Parasites” (The University of Chicago, priority 2020, published 2023)
Each block holds one compound with its values, some of them ahead of it.

How the values were obtained:
[1] = tested on: P. berghei sporozoites; settings: doses between 1 and 20 mg/kg; not the prodrug; cited from earlier work
[2] = Kinetic/aqueous solubility in PBS pH 7.4; assay type: physicochemical; settings: solubility in Phosphate Buffered Saline pH 7.4; first value of cell
Method: PBS Sol/Toxicity pH7.4 refers to solubility of the compound in Phosphate Buffered Saline (PBS) at pH7.4. […] Parasites were RH-YFP expressing tachyzoites (Tachy) and EGS (Brady) strains. Studies of effects of inhibitors on HFF or on T.gondii tachyzoites were performed with triplicate wells in at least two biological replicate experiments. Studies of effects on bradyzoites were performed at least twice in at least two biological replicate experiments. Compounds with much less inhibition of mammalian than T. gondii cytochrome bc in the saffarine enzyme assay (indicated by **) provide potential to further develop compounds, if unanticipated toxicity occurs from JAG21.
Structure Activity Relationship (SAR) and comparison of effect on T.gondii and HFF enzyme activity. […] The MDCK-MDR1 Permeability Assay was also performed. […] These were measured by Chem Partners.

[3] = target: T1, P. falciparum bc1 complex cytochrome c reductase (Pfbc1) (Plasmodium falciparum, UniProt Q02768); assay: Pfbc1 native assay (cytochrome c reduction by parasite extract); assay type: biochemical; settings: atovaquone 1 μM positive control, mean±S.D., N=4
T1 construct: Parasite extract was then prepared by disruption with a sonicating probe; endogenous in cells; host or cells: P. falciparum 3D7 blood-stage parasites freed by saponin, sonicated extract
T1 sequence (Q02768 1-376): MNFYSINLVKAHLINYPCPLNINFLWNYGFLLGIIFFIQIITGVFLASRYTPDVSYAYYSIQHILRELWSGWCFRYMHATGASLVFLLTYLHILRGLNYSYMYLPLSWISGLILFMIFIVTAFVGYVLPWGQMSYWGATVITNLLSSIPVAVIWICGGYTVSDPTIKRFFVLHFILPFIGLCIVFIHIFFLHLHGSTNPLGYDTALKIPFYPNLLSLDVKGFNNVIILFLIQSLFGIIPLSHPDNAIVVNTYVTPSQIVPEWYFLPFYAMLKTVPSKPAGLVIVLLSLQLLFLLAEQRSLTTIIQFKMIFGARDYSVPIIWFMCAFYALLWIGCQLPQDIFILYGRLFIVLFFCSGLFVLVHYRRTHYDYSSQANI
Method: Enzyme assays. P. falciparum 3D7 strain were obtained from the Liverpool School of Tropical Medicine. Protease cocktail inhibitor was obtained from Roche. Bradford protein assay dye reagent was obtained from Bio-Rad. All other reagents were obtained from Sigma-Aldrich. Decylubiquinol was produced as per Fisher et al. (2009). In brief, 25 mg of decylubiquinone were dissolved in 400 μl of nitrogen-saturated hexane. An equal volume of aqueous 1 M sodium dithionite was added, and the mixture vortexed until colorless. […] Concentrations of decylubiquinol was determined spectrophotometrically on a Cary 300 Bio UV/visible spectrophotometer (Varian, UK) from absolute spectra, using ε288-320=8.1 mM-1·cm^−1. […]
The protocol for the preparation of parasite extract was adapted from Fisher et al. Free parasites were prepared from infected erythrocytes pooled from five T75 flasks, by adding 5 volumes of 0.15% (w/v) saponin in phosphate-buffered saline (137 mM NaCl, 2.7 mM KCl, 1.76 mM K2HPO4, 8.0 mM Na2HPO4, 5.5 mM D-glucose, pH 7.4) for 5 min, followed by three washes by centrifugation in RPMI containing HEPES (25 mM), and a final resuspension in potassium phosphate buffer (50 mM K2HPO4, 50 mM KH2PO4, 2 mM EDTA, pH7.4) containing a protease inhibitor cocktail (Complete Mini; Roche). […] The protein concentration of the parasite extract was determined by Bradford protein assay (Bio-Rad). […]

[4] = tested on: T. gondii RH-YFP tachyzoites; assay: In vitro challenge assay, RH strain YFP tachyzoites in HFF; assay type: cell-based, Toxoplasma gondii; settings: requires hepatic metabolism
Method: PBS Sol/Toxicity pH7.4 refers to solubility of the compound in Phosphate Buffered Saline (PBS) at pH7.4. […] Tachy/Brady IC50 was determined in studies in which cultures of parasites in HFF were treated with varying concentrations of the compound and there was 50% inhibition of the replication (number) of parasites. Parasites were RH-YFP expressing tachyzoites (Tachy) and EGS (Brady) strains. Studies of effects of inhibitors on HFF or on T.gondii tachyzoites were performed with triplicate wells in at least two biological replicate experiments. Studies of effects on bradyzoites were performed at least twice in at least two biological replicate experiments. Compounds with much less inhibition of mammalian than T. gondii cytochrome bc in the saffarine enzyme assay (indicated by **) provide potential to further develop compounds, if unanticipated toxicity occurs from JAG21.
RH strain YFP Tachyzoites. Protocol was adapted from Fomovska et al. (2012; 2012a) for HFF. […] RH-YFP, lysed from host cells by passing twice through a 27-gauge needle, were counted, then diluted to 32,000/mL in IMDM-C. […] Plates were read using a fluorimeter (Synergy H4 Hybrid Reader, BioTek) to ascertain amount of relative fluorescence units (RFU) YFP, to measure parasite burden after treatment. Data were collected using Gen5 software with IC50 calculated by graphical analysis in Excel. […]

SMILES: COc1cc2[nH]c(C)c(-c3ccc(Oc4ccc(OC(F)(F)F)cc4)cc3)c(=O)c2cc1Cl [ELQ 300]
Efficacy in the P. berghei in vivo model [1]: not effective

PBS Sol pH7.4 [2]: 4.05 μM
inhibition at 1 µM [3]: 81.3 ± 6%
SMILES: O=c1c2c([nH]c(CO)c1-c1ccc(Oc3ccc(OC(F)(F)F)cc3)cc1)CCCC2 [JAG099]

SMILES: COc1cc(C)c2c(Oc3cccc(C(F)(F)F)c3)c(OC)cc(NC(C)CCCN)c2n1 (stereo not shown) [Tafenoquine]
Activity in tissue culture [4]: not active
